Experiments:
Format in all cases: in vivo
[1] = test system: Avena fatua; experiment: Test Example 5: herbicidal effect by foliage application, plastic box (symbol I); details: 320 g/ha, 3 weeks after application
How it was run: (§1)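 Herbicide, formulated as an emulsion and diluted in water, is sprayed onto the aerial parts of 14-day seedlings. These were grown at 25° C. to 30° C. in sterilized diluvial soil; effects are graded after 3 weeks.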

[2] = test system: Monochoria vaginalis; experiment: Test Example 2: herbicidal activity, application during weed generation in submerged conditions (symbol C); details: Table 23; application herbicide amount 320 g/ha; grade 0-5 by criteria of Test Example 1
How it was run: (§2)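 Alluvial soil in pots was flooded to a 4 cm water depth and sown with a mix of the three weed species, then grown in a greenhouse at 25° C. to 30° C. At the one- to two-leaf stage, an emulsifiable formulation diluted in water to a set dose was applied to the water surface. Effects were scored visually 3 weeks later.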

[3] = test system: Chenopodium album; experiment: Test Example 5: herbicidal effect by foliage application, plastic box (symbol O); details: 320 g/ha, 3 weeks after application
How it was run: as §1

[4] = test system: transplanted rice plant; experiment: Test Example 1: effect on crop, application before weed generation in submerged conditions (symbol a); details: application herbicide amount 320 g/ha
How it was run: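 Rice at 2.5 leaf stage transplanted into submerged soil (4 cm depth) sown with three weed species; herbicide applied before weed emergence.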

[5] = test system: Cyperus difformis; experiment: Test Example 3: herbicidal effect by foliage application, Wagner pot (symbol E); details: application herbicide amount 320 g/ha
How it was run: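 Weeds and rice were sown in alluvial soil under 0.1–0.5 cm of standing water and grown for 14 days in a 25–30 °C greenhouse. An emulsion of the compound, diluted in water to a set dose, was sprayed evenly onto the foliage. Effect was scored against fixed criteria 3 weeks after treatment.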

[6] = test system: corn; experiment: Test Example 5: effect on crop by foliage application, plastic box (symbol c); details: 320 g/ha, 3 weeks after application
How it was run: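 Seeds were sown in spots in sterilized diluvial soil held in a plastic box 21 cm × 13 cm × 7 cm deep, covered with about 1.5 cm of soil, and grown in a greenhouse at 25° C. to 30° C.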

[7] = test system: Echinochloa oryzacola Vasing.; experiment: Test Example 1: herbicidal activity, application before weed generation in submerged conditions (symbol A); details: application herbicide amount 320 g/ha
How it was run: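 Weed control was rated three weeks after treatment on a 0–5 scale, from 5% or lower up to 90% or more. Pre-emergence water-surface application of diluted emulsion at a predetermined rate was made on the day of sowing, in flooded (4 cm water) pots containing rice seedlings, kept at 25–30 °C under glass.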

[8] = test system: directly sowed rice plant; experiment: Test Example 3: effect on crop by foliage application, Wagner pot (symbol b); details: application herbicide amount 320 g/ha
How it was run: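 Greenhouse culture at 25–30 °C of seeded rice, Cyperus difformis, Leptochloa chinensis and Echinochloa crus-galli var. crus-galli, in alluvial soil held under 0.1–0.5 cm of water in a Wagner pot.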

[9] = test system: wheat; experiment: Test Example 4: effect on crop by soil treatment (symbol e); details: application herbicide amount 320 g/ha
How it was run: (§3)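 Diluvial soil (sterilized) in boxes; seeds placed spot-wise alongside weed species; ~1.5 cm covering soil. Greenhouse, 25–30° C.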

[10] = test system: soybean; experiment: Test Example 4: effect on crop by soil treatment (symbol d); details: application herbicide amount 320 g/ha
How it was run: as §3

[11] = test system: Lolium multiflorum Lam.; experiment: Test Example 5: herbicidal effect by foliage application, plastic box (symbol K); details: 320 g/ha, 3 weeks after application
How it was run: as §1

[12] = test system: rice; experiment: Test Example 4: effect on crop by soil treatment (symbol b); details: application herbicide amount 320 g/ha
How it was run: as §3

[13] = test system: Scirpus juncoides; experiment: Test Example 2: herbicidal activity, application during weed generation in submerged conditions (symbol B); details: Table 23; application herbicide amount 320 g/ha; grade 0-5 by criteria of Test Example 1
How it was run: as §2

| SMILES | I: Avena fatua, herbicidal effect grade [1] | Herbicidal effect grade, C: Monochoria vaginalis [2] | O: Chenopodium album, herbicidal effect grade [3] | Effect grade on crop, a: transplanted rice plant [4] | herbicidal effect on E, grade 0-5 [5] | c: corn, effect on crop grade [6] | Herbicidal effect grade, A: Echinochloa oryzacola Vasing. [7] | effect on crop b (directly sowed rice plant), grade 0-5 [8] | e (wheat) effect on crop grade [9] | d (soybean) effect on crop grade [10] | K: Lolium multiflorum Lam., herbicidal effect grade [11] | b (directly sowed rice plant) effect on crop grade [12] | Herbicidal effect grade, B: Scirpus juncoides [13] |
| --- | --- | --- | --- | --- | --- | --- | --- | --- | --- | --- | --- | --- | --- |
| CON=C(C)CC1CC(OC(=O)C(C)Cl)=C(c2c(C)cc(C)cc2C)C1=O (centres unmarked) [1-042] | 5 (Herbicidal ratio of 90% or more (almost completely withered)) | 3 (Herbicidal ratio of 40% or higher and lower than 70%) | 0 (Herbicidal ratio of 5% or lower (almost no effect)) | 5 (Herbicidal ratio of 90% or more (almost completely withered)) | 5 (Herbicidal ratio of 90% or more (almost completely withered)) | 4 (Herbicidal ratio of 70% or higher and lower than 90%) | 0 (Herbicidal ratio of 5% or lower (almost no effect)) | 5 (Herbicidal ratio of 90% or more (almost completely withered)) | 1 (Herbicidal ratio of 5% or higher and lower than 20%) | 0 (Herbicidal ratio of 5% or lower (almost no effect)) | 5 (Herbicidal ratio of 90% or more (almost completely withered)) | 5 (Herbicidal ratio of 90% or more (almost completely withered)) | 4 (Herbicidal ratio of 70% or higher and lower than 90%) |
| CON=C(C)CC1CC(OC(=O)COc2ccccc2)=C(c2c(C)cc(C)cc2C)C1=O (centres unmarked) [1-043] | 5 (Herbicidal ratio of 90% or more (almost completely withered)) | 3 (Herbicidal ratio of 40% or higher and lower than 70%) | 2 (Herbicidal ratio of 20% or higher and lower than 40%) | 5 (Herbicidal ratio of 90% or more (almost completely withered)) | 5 (Herbicidal ratio of 90% or more (almost completely withered)) | 5 (Herbicidal ratio of 90% or more (almost completely withered)) | 5 (Herbicidal ratio of 90% or more (almost completely withered)) | 5 (Herbicidal ratio of 90% or more (almost completely withered)) | 4 (Herbicidal ratio of 70% or higher and lower than 90%) | 1 (Herbicidal ratio of 5% or higher and lower than 20%) | 5 (Herbicidal ratio of 90% or more (almost completely withered)) | 5 (Herbicidal ratio of 90% or more (almost completely withered)) | 5 (Herbicidal ratio of 90% or more (almost completely withered)) |
| CON=C(CC1CC(O)=C(c2c(C)cc(C)cc2C)C1=O)c1ccccn1 (centres unmarked) [1-045] | 5 (Herbicidal ratio of 90% or more (almost completely withered)) | 0 (Herbicidal ratio of 5% or lower (almost no effect)) | 0 (Herbicidal ratio of 5% or lower (almost no effect)) | 3 (Herbicidal ratio of 40% or higher and lower than 70%) | 0 (Herbicidal ratio of 5% or lower (almost no effect)) | 3 (Herbicidal ratio of 40% or higher and lower than 70%) | 5 (Herbicidal ratio of 90% or more (almost completely withered)) | 3 (Herbicidal ratio of 40% or higher and lower than 70%) | 0 (Herbicidal ratio of 5% or lower (almost no effect)) | 0 (Herbicidal ratio of 5% or lower (almost no effect)) | 5 (Herbicidal ratio of 90% or more (almost completely withered)) | 0 (Herbicidal ratio of 5% or lower (almost no effect)) | 0 (Herbicidal ratio of 5% or lower (almost no effect)) |
| CON=C(CC1CC(O)=C(c2c(C)cc(C)cc2C)C1=O)C1CC1 (centres unmarked) [1-046] | 5 (Herbicidal ratio of 90% or more (almost completely withered)) | 3 (Herbicidal ratio of 40% or higher and lower than 70%) | 2 (Herbicidal ratio of 20% or higher and lower than 40%) | 5 (Herbicidal ratio of 90% or more (almost completely withered)) | 5 (Herbicidal ratio of 90% or more (almost completely withered)) | 5 (Herbicidal ratio of 90% or more (almost completely withered)) | 5 (Herbicidal ratio of 90% or more (almost completely withered)) | 5 (Herbicidal ratio of 90% or more (almost completely withered)) | 4 (Herbicidal ratio of 70% or higher and lower than 90%) | 0 (Herbicidal ratio of 5% or lower (almost no effect)) | 5 (Herbicidal ratio of 90% or more (almost completely withered)) | 5 (Herbicidal ratio of 90% or more (almost completely withered)) | 5 (Herbicidal ratio of 90% or more (almost completely withered)) |
| CON=C(CC1CC(O)=C(c2c(C)cc(C)cc2C)C1=O)c1ccccc1 (centres unmarked) [1-047] | 0 (Herbicidal ratio of 5% or lower (almost no effect)) | 0 (Herbicidal ratio of 5% or lower (almost no effect)) | 0 (Herbicidal ratio of 5% or lower (almost no effect)) | 1 (Herbicidal ratio of 5% or higher and lower than 20%) | 0 (Herbicidal ratio of 5% or lower (almost no effect)) | 0 (Herbicidal ratio of 5% or lower (almost no effect)) | 4 (Herbicidal ratio of 70% or higher and lower than 90%) | 2 (Herbicidal ratio of 20% or higher and lower than 40%) | 0 (Herbicidal ratio of 5% or lower (almost no effect)) | 0 (Herbicidal ratio of 5% or lower (almost no effect)) | 4 (Herbicidal ratio of 70% or higher and lower than 90%) | 4 (Herbicidal ratio of 70% or higher and lower than 90%) | 0 (Herbicidal ratio of 5% or lower (almost no effect)) |

Reference: patent US11000033B2, “Ketone or oxime compound, and herbicide” (NISSAN CHEMICAL CORPORATION, priority 2014, dated 2021)
